Experimental data: patent publication US9238033B2, “Pharmaceutical composition containing KW-6002 and fluoxetine or paroxentine” (Kyowa Hakko Kirin Co., Ltd., priority 2003, dated 2016)
Where a name gives a salt, the structure may show the parent alone.

Key:
ICR male mice = assay: Mouse tail suspension method (animal model of depression); format: in vivo; settings: for Duration of immobility (sec) Mean value ± Standard error: last 4 min of 6 min test, Not Significant (Student's t test); for Rate of change of duration of immobility to solvent control group (%): solvent control = 100%
Experimental: The test was carried out with reference to the method of Steru et al., [Psychopharmacol., 85, 367-370 (1985)], which is an animal model of depression.
Experiment was conducted using 10 ICR male mice (weighing 20 to 35 g, Nihon SLC Co., Ltd) per one group.
An acrylic or metallic bat was fixed horizontally such that height of about 60 cm from the floor face is provided.
The mouse was suspended at a site of about 2 cm from the tip of the tail, from the bar for a period of 6 minutes. Duration of immobility during the last 4 minutes of 6 minutes test was measured (significance test: Student's t test). For fixing the mouse, an adhesive tape was used.
(§1) The antidepressant drug and Compound (I) were suspended in distilled water for injection (manufactured by Otsuka Pharmaceutical Co., Ltd.) containing 0.5% MC (methyl cellulose), respectively, for use in the test. Time point of administration of the antidepressant drug was predetermined such that the peak of onset of activity by the antidepressant drug overlaps with the peak of onset of activity by Compound (I). According to the predetermined time, the suspension containing the antidepressant drug was orally administered to a group administered the antidepressant drug alone or a group administered the antidepressant drug and Compound (I) in combination (0.1 mL per 10 g of the mouse body weight). Further, the suspension containing Compound (I) was orally administered to the group administered the antidepressant drug and Compound (I) in combination, 1 hour before the test (0.1 mL per 1.0 g of the mouse body weight). A solution without containing a test compound [distilled water for injection (manufactured by Otsuka Pharmaceutical Co., Ltd.) containing 0.5% MC] and the suspension containing Compound (I) were orally administered to a solvent control group and to a group administered Compound (I) alone, 1 hour before the test, respectively (0.1 mL per 10 g of the mouse body weight).
(§2) Effect obtained by combining Compound (I) and the antidepressant drug was evaluated according to the following index.
The duration of Immobility in the solvent control group was assumed to be 100%, and each rate of change (%) of the duration of immobility in the above administration group to the duration of immobility in the solvent control group was calculated, and was compared. The duration of immobility in each administration group, and the rate of change (%) of the duration of immobility are shown in Table 2 and Table 3.

ddY male mice = assay: Forced swimming method in mice (animal model of depression); format: in vivo; settings: for Duration of immobility (sec) Mean value ± Standard error: last 4 min of 6 min test, Not Significant (Dunnett test); for Rate of change of duration of immobility to solvent control group (%): solvent control = 100%
Experimental: The test was carried out with reference to the method of Porsolt et al., [Arch. Int. Pharmacodyn. Ther., 229, 327-336 (1977)], which is an animal model of depression.
Experiment was conducted using 10 ddY male mice (weighing 20 to 35 g, Nihon SLC Co., Ltd) per one group.
An acrylic transparent cylinder having a diameter of 10 cm and a height of 25 cm was filled with water having a temperature of about 24° C. Height from the bottom of the cylinder to the surface of the water was adjusted to be about 9 cm.
The mice were forced to swim individually for a period of 6 minutes, the total duration of immobility during the last 4 minutes of 6 minutes test was measured (significance test: Dunnett test).
as §1, with “10” for “1.0”
as §2
The duration of Immobility in the solvent control group was assumed to be 100%, and each rate of change (%) of the duration of, immobility in the above administration group to the duration of immobility in the solvent control group was calculated, and was compared. The duration of immobility in each administration group, and the rate of change (%) of the duration of immobility are shown in Table 1.

[1] = Table 3, fluoxetine hydrochloride 10.00 mg/kg orally
[2] = Compound (I) 0.08 mg/kg orally 1 hour before test
[3] = Table 2, Compound (I) 0.04 mg/kg orally 1 hour before test
[4] = Table 3, Compound (I) 0.04 mg/kg orally 1 hour before test
[5] = Venlafaxine hydrochloride 5.00 mg/kg orally
[6] = Table 2, paroxetine hydrochloride hydrate 2.50 mg/kg orally

CNCCC(Oc1ccc(C(F)(F)F)cc1)c1ccccc1 (stereo not drawn) [Fluoxetine hydrochloride]
Duration of immobility (sec) Mean value ± Standard error (ICR male mice; [1]): 85.7 ± 18.9 s | Rate of change of duration of immobility to solvent control group (%) (ICR male mice; [1]): −16%

CCn1c(=O)c2c(nc(/C=C/c3ccc(OC)c(OC)c3)n2C)n(CC)c1=O [Compound (I), (E)-8-(3,4-dimethoxystyryl)-1,3-diethyl-7-methyl-3,7-dihydro-1H-purine-2,6-dione]
Duration of immobility (sec) Mean value ± Standard error (ddY male mice; [2]): 155.6 ± 13.3 s | Rate of change of duration of immobility to solvent control group (%) (ddY male mice; [2]): −21% | Duration of immobility (sec) Mean value ± Standard error (ICR male mice; [3]): 70.1 ± 19.1 s | Rate of change of duration of immobility to solvent control group (%) (ICR male mice; [3]): −14% | Duration of immobility (sec) Mean value ± Standard error (ICR male mice; [4]): 87.9 ± 14.9 s | Rate of change of duration of immobility to solvent control group (%) (ICR male mice; [4]): −26%

COc1ccc(C(CN(C)C)C2(O)CCCCC2)cc1 (stereo not drawn) [Venlafaxine hydrochloride]
Duration of immobility (sec) Mean value ± Standard error (ddY male mice; [5]): 173.1 ± 20.7 s | Rate of change of duration of immobility to solvent control group (%) (ddY male mice; [5]): −12%

Fc1ccc([C@@H]2CCNC[C@H]2COc2ccc3c(c2)OCO3)cc1 [Paroxetine hydrochloride hydrate]
Duration of immobility (sec) Mean value ± Standard error (ICR male mice; [6]): 79.6 ± 16.6 s | Rate of change of duration of immobility to solvent control group (%) (ICR male mice; [6]): −2%
